Measurements as given in the supplement of paper PMC11061612.

Experiments:
Assay in all cases: Bliss excess, mean over the matrix (fraction); higher = more synergy
[1] = tested on: U-118-MG (Low Grade Glioma)
Procedure, shortened: (§1)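 After 24 hours at 37°C and 5% CO2 in 1536-well plates, cells in DMEM/F12 or RPMI plus 10% FBS received two-drug dose matrices for 72 hours. Viability came from CellTiter-Glo 2.0 luminescence and was scaled as inhibition, anchored at 0 by vehicle wells and at 1 by blank wells. Combination Emax is taken as the second-highest inhibition in the matrix, and Bliss excess as the observed combination effect less EA + EB − EA·EB, with EA and EB the single-agent effects.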

MCF7 (Breast Carcinoma) = tested on: MCF7 (Breast Carcinoma)
Procedure, shortened: as §1

[2] = tested on: NOMO-1 (Acute Myeloid Leukemia)
Procedure, shortened: as §1

[3] = tested on: EKVX (Non-Small Cell Lung Carcinoma)
Procedure, shortened: as §1

[4] = tested on: HOP-92 (Non-Small Cell Lung Carcinoma)
Procedure, shortened: as §1

[5] = tested on: SK-UT-1 (Other Solid Carcinomas)
Procedure, shortened: as §1

[6] = tested on: MES-SA (Other Solid Carcinomas)
Procedure, shortened: as §1

[7] = tested on: JHH-6 (Hepatocellular Carcinoma)
Procedure, shortened: as §1

CS1 (Chondrosarcoma) = tested on: CS1 (Chondrosarcoma)
Procedure, shortened: as §1

HCC38 (Breast Carcinoma) = tested on: HCC38 (Breast Carcinoma)
Procedure, shortened: as §1

[8] = tested on: HCT-116 (Colorectal Carcinoma)
Procedure, shortened: as §1

[9] = tested on: SW948 (Colorectal Carcinoma)
Procedure, shortened: as §1

[10] = tested on: PA-TU-8902 (Pancreatic Carcinoma)
Procedure, shortened: as §1

[11] = tested on: DOK (Oral Cavity Carcinoma)
Procedure, shortened: as §1

[12] = tested on: YT (Other Blood Carcinomas)
Procedure, shortened: as §1

[13] = tested on: 647-V (Bladder Carcinoma)
Procedure, shortened: as §1

[14] = tested on: HCC1143 (Breast Carcinoma)
Procedure, shortened: as §1

[15] = tested on: SKN-3 (Head and Neck Carcinoma)
Procedure, shortened: as §1

[16] = tested on: NCI-H1688 (Small Cell Lung Carcinoma)
Procedure, shortened: as §1

[17] = tested on: HLE (Hepatocellular Carcinoma)
Procedure, shortened: as §1

| Structure (SMILES) | Bliss excess [1] | Bliss excess (MCF7 (Breast Carcinoma)) | Bliss excess [2] | Bliss excess [3] | Bliss excess [4] | Bliss excess [5] | Bliss excess [6] | Bliss excess [7] | Bliss excess (CS1 (Chondrosarcoma)) | Bliss excess (HCC38 (Breast Carcinoma)) | Bliss excess [8] | Bliss excess [9] | Bliss excess [10] | Bliss excess [11] | Bliss excess [12] | Bliss excess [13] | Bliss excess [14] | Bliss excess [15] | Bliss excess [16] | Bliss excess [17] |
| --- | --- | --- | --- | --- | --- | --- | --- | --- | --- | --- | --- | --- | --- | --- | --- | --- | --- | --- | --- | --- |
| CC(=O)Nc1cccc(-n2c(=O)n(C3CC3)c(=O)c3c(Nc4ccc(I)cc4F)n(C)c(=O)c(C)c32)c1 [Trametinib] + Cc1nc(-c2cn3c(n2)-c2ccc(-c4cnn(C(C)(C)C(N)=O)c4)cc2OCC3)n(C(C)C)n1 [Taselisib] (first compound max 1 µM, 7x7, partner max 10 µM) | -0.0083 | 0.0979 | 0.0306 | 0.136 | 0.14 | 0.0411 | 0.062 | 0.152 | 0.0483 | 0.0219 | 0.124 | 0.0126 | 0.108 | 0.0767 | -0.0043 | 0.106 | 0.0615 | 0.11 | 0.127 | -0.0291 |
| CC1(C)CCC(CN2CCN(c3ccc(C(=O)NS(=O)(=O)c4ccc(NCC5CCOCC5)c([N+](=O)[O-])c4)c(Oc4cnc5[nH]ccc5c4)c3)CC2)=C(c2ccc(Cl)cc2)C1 [Venetoclax] + C=CCn1c(=O)c2cnc(Nc3ccc(N4CCN(C)CC4)cc3)nc2n1-c1cccc(C(C)(C)O)n1 [AZD1775] (first compound max 1 µM, partner max 1 µM) | -0.0704 | -0.0227 | 0.0689 | -0.075 | 0.0046 | 0.0562 | -0.0606 | -0.0348 | 0.0589 | 0.0136 | -0.0765 | -0.0113 | -0.0622 | -0.0582 | -0.0039 | -0.0274 | -0.0192 | -0.0949 | -0.0067 | -0.0648 |
| Cc1c2c(nn1C)CSCc1cc(n(C)n1)CSc1cc(c3ccccc3c1)OCCCc1c(C(=O)O)n(C)c3c-2c(Cl)ccc13 [AZD5991] + C[C@@H](Nc1cc(F)cc(F)c1)c1cc(C(=O)N(C)C)cc2c(=O)cc(N3CCOCC3)oc12 [AZD8186] (first compound max 1 µM, 7x7, partner max 3 µM) | 0.0012 | -0.01 | 0.0361 | 0.0062 | 0.0222 | -0.0104 | -0.0381 | -0.0281 | 0.0031 | 0.011 | -0.0421 | -0.0498 | -0.0361 | 0.003 | 0.0223 | 0.0458 | 0.0441 | -0.0606 | 0.0171 | 0.0254 |
| CC1(C)CCC(CN2CCN(c3ccc(C(=O)NS(=O)(=O)c4ccc(NCC5CCOCC5)c([N+](=O)[O-])c4)c(Oc4cnc5[nH]ccc5c4)c3)CC2)=C(c2ccc(Cl)cc2)C1 [Venetoclax] + CN(C)CCCOc1ccc(-c2ccc3ncc4c(c3c2)n(C2CCOCC2)c(=O)n4C)cn1 [AZD0156] (first compound max 1 µM, 7x7, partner max 1 µM) | -0.0076 | -0.0152 | 0.0226 | -0.0365 | 0.0047 | -0.013 | -0.0333 | -0.0391 | 0.0599 | 0.0361 | -0.0286 | -0.0001 | -0.0507 | -0.0184 | 0.0204 | -0.0036 | -0.0051 | -0.0221 | 0.0209 | -0.0463 |
| CN(CCO)CC[C@H](CSc1ccccc1)Nc1ccc(S(=O)(=O)NC(=O)c2ccc(N3CCC([C@@H](O)c4ccccc4-c4ccc(Cl)cc4)CC3)cc2)cc1S(=O)(=O)C(F)(F)F [AZD4320] + CN(C)CCCOc1ccc(-c2ccc3ncc4c(c3c2)n(C2CCOCC2)c(=O)n4C)cn1 [AZD0156] (first compound max 1 µM, 7x7, partner max 1 µM) | -0.0537 | -0.051 | 0.0017 | -0.0392 | -0.0014 | -0.0284 | -0.0315 | -0.0367 | -0.0477 | -0.0504 | -0.0518 | -0.0566 | -0.0511 | -0.0332 | -0.0281 | 0.0212 | 0.0124 | -0.0296 | 0.0127 | -0.0209 |
| CCc1c2c(nc3ccc(O)cc13)-c1cc3c(c(=O)n1C2)COC(=O)[C@]3(O)CC [SN-38] + CN(C)CCCOc1ccc(-c2ccc3ncc4c(c3c2)n(C2CCOCC2)c(=O)n4C)cn1 [AZD0156] (first compound max 0.3 µM, 7x7, partner max 1 µM) | -0.0108 | -0.0388 | 0.034 | -0.0142 | 0.027 | 0.0533 | -0.0316 | -0.0159 | -0.0016 | -0.0453 | 0.0669 | 0.237 | 0.0406 | 0.0323 | -0.0872 | 0.0291 | 0.0405 | -0.0209 | -0.0222 | -0.0434 |
| COc1cccc(OCCCN)c1-c1cc(Nc2cnc(C#N)cn2)n[nH]1 [Prexasertib] + CCc1c2c(nc3ccc(O)cc13)-c1cc3c(c(=O)n1C2)COC(=O)[C@]3(O)CC [SN-38] (first compound max 1 µM, 7x7, partner max 0.3 µM) | -0.0193 | -0.0081 | -0.0319 | -0.0347 | 0.0418 | -0.0125 | -0.0714 | 0.0337 | -0.0742 | -0.0201 | -0.0124 | 0.151 | 0.049 | 0.0242 | -0.0527 | 0.0129 | 0.0452 | 0.0703 | 0.111 | -0.0359 |
| CC1(C)CCC(CN2CCN(c3ccc(C(=O)NS(=O)(=O)c4ccc(NCC5CCOCC5)c([N+](=O)[O-])c4)c(Oc4cnc5[nH]ccc5c4)c3)CC2)=C(c2ccc(Cl)cc2)C1 [Venetoclax] + Cn1cnc2c(F)c(Nc3ccc(Br)cc3Cl)c(C(=O)NOCCO)cc21 [Selumetinib] (first compound max 1 µM, 7x7, partner max 3 µM) | -0.0336 | -0.058 | 0.0999 | -0.0732 | -0.0338 | 0.0043 | -0.0129 | -0.0252 | -0.0498 | -0.0322 | -0.0255 | -0.0505 | -0.0178 | -0.0258 | 0.0297 | -0.0064 | -0.0093 | 0.019 | -0.0333 | -0.0267 |
| COc1cccc(OCCCN)c1-c1cc(Nc2cnc(C#N)cn2)n[nH]1 [Prexasertib] + Cc1cc2ncnn2cc1Nc1ncc2c(n1)n(C1CCOCC1)c(=O)n2C [AZD7648] (first compound max 1 µM, 7x7, partner max 10 µM) | -0.0584 | 0.0688 | -0.0388 | -0.0474 | 0.0218 | -0.0227 | -0.02 | 0.0194 | -0.0285 | -0.0592 | -0.0164 | -0.0155 | -0.0059 | 0.0019 | -0.0508 | -0.0011 | -0.0318 | -0.0564 | 0.0044 | -0.064 |
| COc1cc2c(cc1OCCCCCOc1cc3c(cc1OC)C(=O)N1C=C(C)C[C@H]1C=N3)N=C[C@@H]1CC(C)=CN1C2=O [SG3199] + O=C(c1cc(Cc2n[nH]c(=O)c3ccccc23)ccc1F)N1CCN(C(=O)C2CC2)CC1 [Olaparib] (first compound max 0.001 µM, 7x7, partner max 10 µM) | -0.0488 | -0.0444 | -0.0328 | -0.0424 | -0.0048 | -0.0181 | 0.0626 | -0.0353 | -0.0451 | -0.0356 | -0.0523 | -0.0092 | -0.0291 | -0.0368 | 0.019 | -0.0289 | -0.0216 | -0.0276 | -0.0264 | -0.0323 |
| Cc1cc2ncnn2cc1Nc1ncc2c(n1)n(C1CCOCC1)c(=O)n2C [AZD7648] + CN(C)CCCOc1ccc(-c2ccc3ncc4c(c3c2)n(C2CCOCC2)c(=O)n4C)cn1 [AZD0156] (first compound max 10 µM, 7x7, partner max 1 µM) | -0.0217 | -0.0048 | 0.0371 | 0.0001 | -0.0136 | 0.0143 | 0.0228 | -0.0033 | -0.0028 | 0.0157 | 0.0277 | 0.0122 | -0.0013 | -0.0075 | -0.0389 | 0.0401 | 0.0031 | -0.0064 | 0.0029 | -0.0274 |
| Cc1c2c(nn1C)CSCc1cc(n(C)n1)CSc1cc(c3ccccc3c1)OCCCc1c(C(=O)O)n(C)c3c-2c(Cl)ccc13 [AZD5991] + CCN(CCO)CCCOc1ccc2c(Nc3cc(CC(=O)Nc4cccc(F)c4)[nH]n3)ncnc2c1 [AZD2811] (first compound max 1 µM, 7x7, partner max 1 µM) | 0.0042 | 0.0081 | 0.0894 | -0.0356 | 0.0184 | 0.0125 | 0.138 | -0.0298 | -0.044 | 0.058 | 0.0295 | -0.0014 | -0.0356 | 0.0524 | 0.0185 | 0.0896 | 0.0514 | 0.0134 | 0.0059 | -0.0018 |
| CN(CCO)CC[C@H](CSc1ccccc1)Nc1ccc(S(=O)(=O)NC(=O)c2ccc(N3CCC([C@@H](O)c4ccccc4-c4ccc(Cl)cc4)CC3)cc2)cc1S(=O)(=O)C(F)(F)F [AZD4320] + C1CN(CCC1(C(=O)N[C@@H](CCO)C2=CC=C(C=C2)Cl)N)C3=NC=NC4=C3C=CN4 [Capivasertib] (first compound max 1 µM, 7x7, partner max 3 µM) | -0.0546 | -0.0383 | -0.0012 | -0.0309 | -0.038 | -0.0006 | -0.0088 | -0.0437 | -0.022 | 0.0057 | -0.0366 | -0.0497 | -0.0448 | -0.0554 | 0.0135 | 0.0056 | -0.0314 | -0.0375 | -0.0173 | -0.126 |
| Cc1c2c(nn1C)CSCc1cc(n(C)n1)CSc1cc(c3ccccc3c1)OCCCc1c(C(=O)O)n(C)c3c-2c(Cl)ccc13 [AZD5991] + C=CCn1c(=O)c2cnc(Nc3ccc(N4CCN(C)CC4)cc3)nc2n1-c1cccc(C(C)(C)O)n1 [AZD1775] (first compound max 1 µM, partner max 1 µM) | -0.0014 | -0.0622 | -0.01 | 0.0335 | -0.012 | -0.0534 | 0.0402 | -0.0647 | -0.0118 | 0.0396 | 0.0226 | -0.13 | -0.0326 | -0.0235 | -0.0725 | 0.059 | 0.0689 | 0.0116 | -0.0502 | 0.0017 |
